Reference: BindingDB's records for doi:10.3109/14756366.2013.776556 (King Fahd University of Petroleum & Minerals, 2014)

Assays:
[1] = target: T1, 5-hydroxytryptamine receptor 1A (Homo sapiens, UniProt P08908); test: Binding Affinity Assay; conditions: pH 7.4; 37 °C
T1 sequence (P08908 whole entry): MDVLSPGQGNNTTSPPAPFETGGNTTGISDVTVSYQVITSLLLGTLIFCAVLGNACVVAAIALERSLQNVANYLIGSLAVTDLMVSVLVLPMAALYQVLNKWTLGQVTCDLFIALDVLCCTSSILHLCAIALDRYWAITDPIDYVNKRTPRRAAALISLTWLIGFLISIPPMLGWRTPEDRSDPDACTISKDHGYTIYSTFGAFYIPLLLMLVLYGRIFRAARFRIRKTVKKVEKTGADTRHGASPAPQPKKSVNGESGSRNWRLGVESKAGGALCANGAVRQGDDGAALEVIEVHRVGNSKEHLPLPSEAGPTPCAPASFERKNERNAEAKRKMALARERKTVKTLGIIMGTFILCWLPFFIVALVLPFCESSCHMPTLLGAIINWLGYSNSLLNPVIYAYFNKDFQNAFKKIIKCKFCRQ
Method: Human-cloned 5-HT1A serotonin receptors stably expressed in HEK293-EBNA cells (Perkin-Elmer, Waltham, MA) were radiolabeled with 1.0nM [3H]-8-OH-DPAT [Fargin et al., J. Biol. Chem., 264:[…]]. Samples containing 32 μg of membrane protein, different concentrations of each compound ranging from 0.1nM to 10 μM were incubated in a final volume of 500 μL of 50mM Tris-HCl pH 7.4, 5mM MgSO4for 120 min at 37 °C. After this incubation time, samples were filtered through Whatman GF/C glass microfiber filters presoaked in polyethylenimine 0.5% for at least 30 min prior to use. The filters were washed twice with 1mL of ice-cold buffer (50mM Tris-HCl, pH 7.4). Nonspecific binding was determined in the presence of 10 μM 5-HT. The radioactivity bound to the filters was measured by liquid scintillation using the LS6500 Multi-Purpose scintillation Counter, Beckman.

[2] = target: D(2) dopamine receptor (Homo sapiens, UniProt P14416); test: Binding Affinity Assay; conditions: pH 7.4; 25 °C
Chain of D(2) dopamine receptor (P14416 whole entry): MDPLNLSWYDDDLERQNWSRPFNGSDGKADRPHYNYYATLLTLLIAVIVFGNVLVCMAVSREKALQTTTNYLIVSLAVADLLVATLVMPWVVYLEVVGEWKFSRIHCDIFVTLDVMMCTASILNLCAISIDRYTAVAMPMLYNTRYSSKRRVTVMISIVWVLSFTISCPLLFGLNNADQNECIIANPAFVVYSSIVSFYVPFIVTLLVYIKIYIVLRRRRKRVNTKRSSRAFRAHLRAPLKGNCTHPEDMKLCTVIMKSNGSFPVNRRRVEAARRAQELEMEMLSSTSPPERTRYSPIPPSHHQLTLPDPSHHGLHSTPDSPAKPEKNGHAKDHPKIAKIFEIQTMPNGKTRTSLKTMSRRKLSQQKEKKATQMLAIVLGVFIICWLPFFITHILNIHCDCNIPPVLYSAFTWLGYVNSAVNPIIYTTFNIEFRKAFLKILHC
Method: The samples were incubated for 120 min at 25 °C, then the incubation was stopped by rapid filtration through Whatman GF/C glass fiber filters (presoaked in 0.5% polyethylenimine for 60 min). The filters were washed three times in 1mL of ice-cold 50mM Tris, 0.9% NaCl, pH 7.4. Nonspecific binding was determined in the presence of 10 μM haloperidol. The radioactivity bound to the filters was measured by liquid scintillation using a LS6500 Multi-Purpose scintillation Counter, Beckman.

SMILES | Ki [1] [nM] | Ki [2] [nM]
O=c1[nH]c2ccc(C3CCN(Cc4ccc(-c5ccc(F)cc5)cc4)CC3)cc2[nH]1 [5-(1-((4'-Fluorobiphenyl-4-yl)methyl)piperidin-4-yl)-1H-benzo[d]imidazol-2(3H)-one (5b)] | 16.2 | 34.4
O=c1[nH]c2ccc(C3CCN(Cc4cncc(-c5ccc(F)cc5)c4)CC3)cc2[nH]1 [5-(1-((5-(4-Fluorophenyl)pyridin-3-yl)methyl)piperidin-4-yl)-1H-benzo[d]imidazol-2(3H)-one (5d)] | 9.42 | 24.6
O=c1[nH]c2ccc(C3CCN(Cc4ccc(-c5ccccc5)cc4)CC3)cc2[nH]1 [5-(1-(biphenyl-4-ylmethyl)piperidin-4-yl)-1H-benzo[d]imidazol-2(3H)-one (5a)] | 34.2 | 96.2
O=c1[nH]c2ccc(N3CCN(Cc4ccc(-c5ccc(F)cc5)cc4)CC3)cc2[nH]1 [5-(4-((4'-fluorobiphenyl-4-yl)methyl)piperazin-1-yl)-1H-benzo[d]imidazol-2(3H)-one (6b)] | 27.2 | 62.6
O=c1[nH]c2ccc(N3CCN(Cc4cncc(-c5ccc(F)cc5)c4)CC3)cc2[nH]1 [5-(4-((5-(4-fluorophenyl)pyridin-3-yl)methyl)piperazin-1-yl)-1H-benzo[d]imidazol-2(3H)-one (6d)] | 11.4 | 82
O=c1[nH]c2ccc(N3CCN(Cc4ccc(-c5ccccc5)cc4)CC3)cc2[nH]1 [5-(4-(biphenyl-4-ylmethyl)piperazin-1-yl)-1H-benzo[d]imidazol-2(3H)-one (6a)] | 46.3 | 42.2

Compounds with a lower Ki [1], results first:

Ki [1] [nM] | Ki [2] [nM] | SMILES
8.64 | 8.4 | Fc1ccc(-c2cncc(CN3CCN(c4cccc5c4OCCO5)CC3)c2)cc1 [1-(2,3-dihydro-1,4-benzodioxin-5-yl)-4-[[5-(4-fluorophenyl)pyridin-3-yl]methyl]piperazine]
7.19 | – | O=c1[nH]c2cccc(N3CCN(Cc4cccc(-c5ccccc5)c4)CC3)c2o1
6.72 | 18.5 | O=c1[nH]c2ccc(C3CCN(Cc4cncc(-c5ccccc5)c4)CC3)cc2[nH]1 [5-(1-((5-phenylpyridin-3-yl)methyl)piperidin-4-yl)-1H-benzo[d]imidazol-2(3H)-one (5c)]
6.3 | 4.26 | O=c1[nH]c2ccc(C3CCN(Cc4cncc(C5=CCCC5)c4)CC3)cc2[nH]1 [5-(1-((5-cyclopentenylpyridin-3-yl)methyl)piperidin-4-yl)-1Hbenzo[d]imidazol-2(3H)-one (5f)]
5.3 | 12.6 | O=c1[nH]c2ccc(N3CCN(Cc4cncc(-c5ccccc5)c4)CC3)cc2[nH]1 [5-(4-((5-phenylpyridin-3-yl)methyl)piperazin-1-yl)-1H-benzo[d]imidazol-2(3H)-one (6c)]
3.1 | 10.4 | O=c1[nH]c2ccc(N3CCN(Cc4cccc(C5=CCCC5)c4)CC3)cc2[nH]1 [5-(4-(3-cyclopentenylbenzyl)piperazin-1-yl)-1H-benzo[d]imidazol-2(3H)-one (6e)]
1.7 | 3.1 | O=c1[nH]c2ccc(N3CCN(Cc4cncc(C5=CCCC5)c4)CC3)cc2[nH]1 [5-(4-((5-cyclopentenylpyridin-3-yl)methyl)piperazin-1-yl)-1H-benzo[d]imidazol-2(3H)-one (6f)]
1.2 | 8.12 | O=c1[nH]c2ccc(C3CCN(Cc4cccc(C5=CCCC5)c4)CC3)cc2[nH]1 [5-(1-(3-cyclopentenylbenzyl)piperidin-4-yl)-1H-benzo[d]imidazol-2(3H)-one (5e)]
